Data reported in PubChem BioAssay (NCI).
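At the GI50, growth is halved. At the TGI there is no net growth.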

What was measured:
Assay in all cases: NCI anticancer screen, dose series, 384-well format
BT-549 breast = tested on: BT-549 breast
M14 melanoma = tested on: M14 melanoma
A549 NSCLC = tested on: A549 NSCLC
SR leukemia = tested on: SR leukemia
MALME-3M melanoma = tested on: MALME-3M melanoma
MDA-MB-435 melanoma = tested on: MDA-MB-435 melanoma
SNB-75 CNS = tested on: SNB-75 CNS
MCF7 breast = tested on: MCF7 breast
OVCAR-8 ovarian = tested on: OVCAR-8 ovarian
NCI-H23 lung = tested on: NCI-H23 lung
TK-10 renal = tested on: TK-10 renal
IGROV1 ovarian = tested on: IGROV1 ovarian
NCI-H522 lung = tested on: NCI-H522 lung
UO-31 renal = tested on: UO-31 renal
CAKI-1 renal = tested on: CAKI-1 renal
KM12 colon = tested on: KM12 colon
COLO 205 colon = tested on: COLO 205 colon
DU-145 prostate = tested on: DU-145 prostate
NCI-H322M lung = tested on: NCI-H322M lung
NCI/ADR-RES ovarian = tested on: NCI/ADR-RES ovarian
HOP-92 NSCLC = tested on: HOP-92 NSCLC
MDA-MB-231 breast = tested on: MDA-MB-231 breast
SNB-19 CNS = tested on: SNB-19 CNS
LOX IMVI melanoma = tested on: LOX IMVI melanoma
RXF 393 renal = tested on: RXF 393 renal
HCC-2998 colon = tested on: HCC-2998 colon
T-47D breast = tested on: T-47D breast
SN12C renal = tested on: SN12C renal
HCT-15 colon = tested on: HCT-15 colon
SF-539 CNS = tested on: SF-539 CNS
MOLT-4 leukemia = tested on: MOLT-4 leukemia
SF-268 CNS = tested on: SF-268 CNS
EKVX NSCLC = tested on: EKVX NSCLC
HOP-62 NSCLC = tested on: HOP-62 NSCLC
OVCAR-4 ovarian = tested on: OVCAR-4 ovarian
MDA-MB-468 breast = tested on: MDA-MB-468 breast
SK-OV-3 ovarian = tested on: SK-OV-3 ovarian
OVCAR-3 ovarian = tested on: OVCAR-3 ovarian
HS 578T breast = tested on: HS 578T breast
HL-60(TB) leukemia = tested on: HL-60(TB) leukemia
ACHN renal = tested on: ACHN renal
NCI-H226 lung = tested on: NCI-H226 lung
A498 renal = tested on: A498 renal
PC-3 prostate = tested on: PC-3 prostate
CCRF-CEM leukemia = tested on: CCRF-CEM leukemia
UACC-62 melanoma = tested on: UACC-62 melanoma
HT29 colon = tested on: HT29 colon
U251 glioblastoma = tested on: U251 glioblastoma
SK-MEL-5 melanoma = tested on: SK-MEL-5 melanoma
SW-620 colon = tested on: SW-620 colon
786-0 renal = tested on: 786-0 renal
K-562 leukemia = tested on: K-562 leukemia
UACC-257 melanoma = tested on: UACC-257 melanoma
SK-MEL-28 melanoma = tested on: SK-MEL-28 melanoma
NCI-H460 NSCLC = tested on: NCI-H460 NSCLC
SF-295 CNS = tested on: SF-295 CNS
HCT-116 colon = tested on: HCT-116 colon
RPMI-8226 leukemia = tested on: RPMI-8226 leukemia

NC1CCC(N[C@@H]2C[C@H]2c2ccccc2)CC1 (stereo partly specified)
GI50 (BT-549 breast): 46.2 µM
TGI (BT-549 breast): > 100 µM
GI50 (M14 melanoma): 20.9 µM
TGI (M14 melanoma): 40.2 µM
GI50 (A549 NSCLC): > 100 µM
TGI (A549 NSCLC): > 100 µM
GI50 (SR leukemia): 6.76 µM
TGI (SR leukemia): 18.6 µM
GI50 (MALME-3M melanoma): 21 µM
TGI (MALME-3M melanoma): 47.3 µM
GI50 (MDA-MB-435 melanoma): 38.1 µM
TGI (MDA-MB-435 melanoma): > 100 µM
GI50 (SNB-75 CNS): > 100 µM
TGI (SNB-75 CNS): > 100 µM
GI50 (MCF7 breast): > 100 µM
TGI (MCF7 breast): > 100 µM
GI50 (OVCAR-8 ovarian): 49.4 µM
TGI (OVCAR-8 ovarian): > 100 µM
GI50 (NCI-H23 lung): 71.2 µM
TGI (NCI-H23 lung): > 100 µM
GI50 (TK-10 renal): > 100 µM
TGI (TK-10 renal): > 100 µM
GI50 (IGROV1 ovarian): 48.8 µM
TGI (IGROV1 ovarian): > 100 µM
GI50 (NCI-H522 lung): 94.1 µM
TGI (NCI-H522 lung): > 100 µM
GI50 (UO-31 renal): 32.5 µM
TGI (UO-31 renal): > 100 µM
GI50 (CAKI-1 renal): 35.2 µM
TGI (CAKI-1 renal): > 100 µM
GI50 (KM12 colon): 61.9 µM
TGI (KM12 colon): > 100 µM
GI50 (COLO 205 colon): 66.7 µM
TGI (COLO 205 colon): > 100 µM
GI50 (DU-145 prostate): 87.1 µM
TGI (DU-145 prostate): > 100 µM
GI50 (NCI-H322M lung): 86.4 µM
TGI (NCI-H322M lung): > 100 µM
GI50 (NCI/ADR-RES ovarian): > 100 µM
TGI (NCI/ADR-RES ovarian): > 100 µM
GI50 (HOP-92 NSCLC): 35.9 µM
TGI (HOP-92 NSCLC): > 100 µM
GI50 (MDA-MB-231 breast): 90.5 µM
TGI (MDA-MB-231 breast): > 100 µM
GI50 (SNB-19 CNS): > 100 µM
TGI (SNB-19 CNS): > 100 µM
GI50 (LOX IMVI melanoma): 36.2 µM
TGI (LOX IMVI melanoma): > 100 µM
GI50 (RXF 393 renal): 32.1 µM
TGI (RXF 393 renal): > 100 µM
GI50 (HCC-2998 colon): 40.1 µM
TGI (HCC-2998 colon): > 100 µM
GI50 (T-47D breast): > 100 µM
TGI (T-47D breast): > 100 µM
GI50 (SN12C renal): > 100 µM
TGI (SN12C renal): > 100 µM
GI50 (HCT-15 colon): 34.1 µM
TGI (HCT-15 colon): > 100 µM
GI50 (SF-539 CNS): 23.4 µM
TGI (SF-539 CNS): 64.1 µM
GI50 (MOLT-4 leukemia): 24 µM
TGI (MOLT-4 leukemia): 77.8 µM
GI50 (SF-268 CNS): 76.2 µM
TGI (SF-268 CNS): > 100 µM
GI50 (EKVX NSCLC): 40.2 µM
TGI (EKVX NSCLC): > 100 µM
GI50 (HOP-62 NSCLC): 66.9 µM
TGI (HOP-62 NSCLC): > 100 µM
GI50 (OVCAR-4 ovarian): > 100 µM
TGI (OVCAR-4 ovarian): > 100 µM
GI50 (MDA-MB-468 breast): 58.9 µM
TGI (MDA-MB-468 breast): > 100 µM
GI50 (SK-OV-3 ovarian): > 100 µM
TGI (SK-OV-3 ovarian): > 100 µM
GI50 (OVCAR-3 ovarian): 25 µM
TGI (OVCAR-3 ovarian): > 100 µM
GI50 (HS 578T breast): 37.5 µM
TGI (HS 578T breast): > 100 µM
GI50 (HL-60(TB) leukemia): 10.2 µM
TGI (HL-60(TB) leukemia): 28.9 µM
GI50 (ACHN renal): > 100 µM
TGI (ACHN renal): > 100 µM
GI50 (NCI-H226 lung): > 100 µM
TGI (NCI-H226 lung): > 100 µM
GI50 (A498 renal): 28.3 µM
TGI (A498 renal): > 100 µM
GI50 (PC-3 prostate): 64.7 µM
TGI (PC-3 prostate): > 100 µM
GI50 (CCRF-CEM leukemia): 31.5 µM
TGI (CCRF-CEM leukemia): > 100 µM
GI50 (UACC-62 melanoma): 19.4 µM
TGI (UACC-62 melanoma): 38.2 µM
GI50 (HT29 colon): 20 µM
TGI (HT29 colon): 43.7 µM
GI50 (U251 glioblastoma): 44.4 µM
TGI (U251 glioblastoma): > 100 µM
GI50 (SK-MEL-5 melanoma): 41.4 µM
TGI (SK-MEL-5 melanoma): > 100 µM
GI50 (SW-620 colon): > 100 µM
TGI (SW-620 colon): > 100 µM
GI50 ([…]-0 renal): 33.4 µM
TGI (786-0 renal): > 100 µM
GI50 (K-562 leukemia): 31.4 µM
TGI (K-562 leukemia): > 100 µM
GI50 (UACC-257 melanoma): 17.5 µM
TGI (UACC-257 melanoma): 33.1 µM
GI50 (SK-MEL-28 melanoma): 32.2 µM
TGI (SK-MEL-28 melanoma): > 100 µM
GI50 (NCI-H460 NSCLC): 77 µM
TGI (NCI-H460 NSCLC): > 100 µM
GI50 (SF-295 CNS): > 100 µM
TGI (SF-295 CNS): > 100 µM
GI50 (HCT-116 colon): 41.6 µM
TGI (HCT-116 colon): > 100 µM
GI50 (RPMI-8226 leukemia): 41.5 µM
TGI (RPMI-8226 leukemia): > 100 µM
